Experimental data from patent US20170172963A1, “COMPOSITIONS AND METHODS FOR THE PREVENTION AND OR TREATMENT OF SCHISTOSOMIASIS” (DSM IP ASSETS B.V., priority 2014, published 2017).
Several values for one entry are separate records, joined by “and”; a condition that tells them apart may be missing. Identical values can stand only once.

Legend:
Type in all cases: in vivo, human
[1] = system: Schistosoma mansoni; assay: Example 2: stool egg counts (epg) and cure rate in infected school children, El Kafr Sheikh; set-up: % epg reduction: concentration or dose not given beside the values
Protocol: School children from El Kafr Sheikh were screened similar to those school children in Example 1 above.
(§1) The children were divided randomly into three groups whereby the first group of children were given a single oral dose of Praziquantel (PZQ) (40 mg/kg body weight) on the first day of treatment and a placebo was given for the next three weeks (5 doses/week) (“PZQ-Placebo Treatment”). The PZQ was Distocide (Epico, El-Asher-Men-Ramadan City, Egypt). The placebo was 1 g VegCap, containing corn-soy (DSM Nutritional Products, Columbia, Md.). The second group of children received ARA (10 mg/kg body weight/day) for 15 days over three weeks (5 days/week) (“ARA Treatment”). The ARA was 1 g VegCap (DSM) containing approximately 395 mg ARA/capsule. The third group of children were given Praziquantel (40 mg/kg body weight) in the first day of treatment and then received 15 doses of ARA (10 mg/kg/day; 5 doses/week) (“PZQ-ARA Treatment”).
(§2) Approximately 10 ml blood were obtained from each child 2-3 days before the start of the treatment and 3 days after the end of the ARA (or ARA+PZQ) treatment, corresponding to 18 days after PZQ-only treatment. Stool samples were obtained from each child on 3 consecutive days 1 week after the end of the ARA treatment (corresponding to 4 weeks after the PZQ-only treatment) and 6 weeks after the end of the ARA treatment (corresponding to 9 weeks after the PZQ-only treatment). Epg was assessed on each stool sample.
(§3) Subjects having initial baseline epg counts <100 were classified as having low infection. Subjects having initial baseline epg counts >100 but <400 were classified as having moderate infection. Subjects having initial baseline epg counts >400 were classified as having high infection.

[2] = system: IL-10; assay: Example 2: plasma IL-10 level by capture ELISA after treatment; conditions: for Median IL-10 after treatment / % reduction in IL-10 levels: plasma; for Median IL-10 after treatment: 3 days after end of ARA treatment (18 days after PZQ); for % reduction in IL-10 levels: after treatment vs baseline
Protocol: as §1, §2
(§4) Plasma was retrieved from heparinized blood following centrifugation at 400 g for 20 minutes and stored at −76° C. until assayed by capture enzyme-linked immunosorbent assay (ELISA) for levels of IL-10 and IFN-γ (ELISA MAX™ Set, BioLegend, San Diego, Calif.) according to the manufacturer's protocol.

[3] = system: IFN-γ; assay: Example 2: plasma IFN-γ level by capture ELISA after treatment; conditions: for Median IFN-γ after treatment / % reduction in IFN-γ levels: plasma; for Median IFN-γ after treatment: 3 days after end of ARA treatment (18 days after PZQ); for % reduction in IFN-γ levels: after treatment vs baseline
Protocol: as §1, §2, §4

[4] = system: Schistosoma mansoni; assay: Example 1: stool egg counts (Kato-Katz, epg) and cure rate in infected school children, Menoufiya; conditions: for % cure rate: children with 0 epg after week 9
Protocol: Approximately 2000 school children in villages of three districts in the Menoufiya governorate located about 100 km north of Cairo, Egypt were screened. Two microscopic slides of stool samples were examined for each child on 3 consecutive days by the Kato-Katz method and egg counts per gram (epg) were recorded. 66 children, 44 males and 22 females, 6-15 years old (mean±SD=11.7±1.6), with weight range of 25-52 kg (mean±SD=37.8±8.6), and epg of 24-384 were selected as test subjects. 20 sex, age, and social conditions-matched, parasite-free children were used as controls.
The 66 children were divided randomly into three groups whereby the first group of 20 children were given a single oral dose of Praziquantel (PZQ) (40 mg/kg body weight) on the first day of treatment and a placebo was given for the next three weeks (5 doses/week) (“PZQ-Placebo Treatment”). The PZQ was Distocide (Epico, El-Asher-Men-Ramadan City, Egypt). The placebo was 1 g VegCap, containing corn-soy (DSM Nutritional Products, Columbia, Md.). The second group of 23 children received ARA (10 mg/kg body weight/day) for 15 days over three weeks (5 days/week) (“ARA Treatment”) The ARA was 1 g VegCap (DSM) containing approximately 395 mg ARA/capsule. The third group of 23 children were given Praziquantel (40 mg/kg body weight) in the first day of treatment and then received 15 doses of ARA (10 mg/kg/day; 5 doses/week) (“PZQ+ARA Treatment”).
as §2, §3

[5] = initial baseline epg < 100, mean epg 6 weeks after treatment vs mean baseline epg
[6] = initial baseline epg > 100 and < 400, mean epg 6 weeks after treatment vs mean baseline epg
[7] = initial baseline epg > 400, mean epg 6 weeks after treatment vs mean baseline epg
[8] = low infection, initial baseline epg < 100
[9] = moderate infection, initial baseline epg > 100 and < 400
[10] = low infection (baseline epg < 100)
[11] = moderate and high infection (baseline epg > 100)

Row | Compound | % epg reduction [1, 5] | % epg reduction [1, 6] | % epg reduction [1, 7] | % cured [1, 8] | % cured [1, 9] | Median IL-10 after treatment [2] | % reduction in IL-10 levels [2] | Median IFN-γ after treatment [3] | % reduction in IFN-γ levels [3] | % cure rate [4, 10] | % cure rate [4, 11] | also measured
1 | CCCCC/C=C\C/C=C\C/C=C\C/C=C\CCCC(=O)O [ARA, all-cis 5,8,11,14-eicosatetreanoic acid] | −2.6% | 49% | 65% | 50% and 50 (22/43) % | 49% and 28 (4/19) % | 40 pg/mL | 50% | 25 pg/mL | 70% | 77% | 50% | levels of circulating IL-10 (result in words) ([2]; after treatment): more effective; levels of circulating IFN-γ (result in words) ([3]; after treatment): more effective; epg After Week 4 ([4]; individual subjects with initial baseline epg < 100, stool 4 weeks after PZQ / 1 week after end of ARA): 12 epg and 0 epg (4×) and 144 epg and 24 epg (2×) and 20 epg and 52 epg and 48 epg and 19 epg; epg After Week 9 ([4]; individual subjects with initial baseline epg < 100, stool 9 weeks after PZQ / 6 weeks after end of ARA): 0 epg (10×) and 376 epg and 20 epg and 42 epg; epg After Week 4 ([4]; individual subjects with initial baseline epg > 100, stool 4 weeks after PZQ / 1 week after end of ARA): 240 epg and 96 epg (3×) and 749 epg and 216 epg and 84 epg and 0 epg and 48 epg and 60 epg; epg After Week 9 ([4]; individual subjects with initial baseline epg > 100, stool 9 weeks after PZQ / 6 weeks after end of ARA): 0 epg (5×) and 108 epg and 48 epg and 28 epg and 20 epg and 152 epg
2 | O=C(C1CCCCC1)N1CC(=O)N2CCc3ccccc3C2C1 (stereo not drawn) [PZQ, 2-(Cyclohexylcarbonyl)-1,2,3,6,7,11b-hexahydro-4H-pyrazino[2,1-a] isoquinolin-4-one, reference compound] | 50% | 70% | 81% | 57 (20/35) % | 43 (10/23) % | 36 pg/mL | 42% | 32.5 pg/mL | 60% | 71% | 67% | % cured ([1]; high infection, initial baseline epg > 400): 30 (8/26) %; % cured ([1]; high infection, initial baseline epg > 400, listed as PZQ-Placebo): 81%; % cured ([1]; low infection, initial baseline epg < 100, listed as PZQ-Placebo): 57%; % cured ([1]; moderate infection, initial baseline epg > 100 and < 400, listed as PZQ-Placebo): 70%; epg After Week 4 ([4]; individual subjects with initial baseline epg < 100, stool 4 weeks after PZQ / 1 week after end of ARA, listed as PZQ-Placebo): 8 epg and 0 epg (9×) and 5 epg (2×); epg After Week 9 ([4]; individual subjects with initial baseline epg < 100, stool 9 weeks after PZQ / 6 weeks after end of ARA, listed as PZQ-Placebo): 10 epg and 4 epg and 0 epg (10×) and 6 epg and 20 epg; epg After Week 4 ([4]; individual subjects with initial baseline epg > 100, stool 4 weeks after PZQ / 1 week after end of ARA, listed as PZQ- Placebo): 0 epg (3×) and 16 epg; epg After Week 9 ([4]; individual subjects with initial baseline epg > 100, stool 9 weeks after PZQ / 6 weeks after end of ARA, listed as PZQ- Placebo): 0 epg (4×) and 10 epg and 30 epg
